Consider six compounds from patent US8338565B2, “Macrocyclic compounds for inhibition of tumor necrosis factor alpha” (Ensemble Therapeutics Corporation, priority 2008, dated 2012).

“And” between values parts separate entries of the source, which are not always exact repeats. Identical values can stand only once.

One test deals with T1, TNFα / TNFα receptor (TNFα R1/Fc) (Homo sapiens, UniProt P01375).
T1 construct: purchased R&D Systems
T1 sequence (P01375 77-233 limits assumed, species assumed): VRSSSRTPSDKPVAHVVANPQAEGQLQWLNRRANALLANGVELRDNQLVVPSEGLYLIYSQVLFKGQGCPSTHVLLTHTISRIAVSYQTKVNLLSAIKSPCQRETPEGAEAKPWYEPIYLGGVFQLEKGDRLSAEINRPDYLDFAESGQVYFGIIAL
Briefly: Inhibition of binding of TNFα to the TNFα receptor (plate ELISA competition). The conditions noted are these: Activity (IC50, inhibition of TNFα binding to TNFα R1/Fc), Table 2. The procedure, abridged:
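Plates were coated with TNFα at 15 nM. Test compound and 8.33 nM receptor-Fc (PBST, 2% DMSO) were first mixed in solution for 30 min at room temperature, then transferred to the plates for another 30 min. Competition was read by absorbance at 450 nm after HRP anti-human IgG Fc detection with TMB.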
On the technique in general: An ELISA detects its analyte on a solid surface through an enzyme-linked reagent.
Take `O=C1COc2ccc(cc2)C[C@@H](C(=O)N[C@H](CCc2ccccc2)C(=O)O)NC(=O)[C@H](Cc2c[nH]c3ccccc23)NC(=O)[C@@H](Cc2ccc(-c3ccccc3)cc2)NC(=O)[C@H](Cc2ccncc2)N1` [Compound 745]: the IC50 was 10 to 30 µM.

`O=C1COc2ccc(cc2)C[C@@H](C(=O)NCc2nnn[nH]2)NC(=O)[C@H](CCc2ccccc2)NC(=O)[C@@H](Cc2ccc(-c3ccccc3)cc2)NC(=O)[C@H](Cc2c[nH]c3ccccc23)N1` [Compound 746]: the IC50 is below 10 µM.

Still in this test, the particulars now being: Table 2; read-out: Activity (IC50, inhibition of TNFα binding to TNFα R1/Fc).
Turning to `O=C1COc2ccc(cc2)C[C@@H](C(=O)N[C@H](CCc2ccccc2)C(=O)O)NC(=O)[C@H](Cc2c[nH]c3ccccc23)NC(=O)[C@@H](Cc2ccc(-c3ccccc3)cc2)NC(=O)[C@H](Cc2c[nH]c3ccccc23)N1` [Compound 744], the IC50 was below 10 µM.

For `CN1C(=O)COc2ccc(cc2)C[C@@H](C(=O)N[C@H](CCc2ccccc2)C(=O)O)NC(=O)[C@H](Cc2c[nH]c3ccccc23)NC(=O)[C@@H](Cc2ccc(-c3ccccc3)cc2)NC(=O)[C@@H]1Cc1c[nH]c2ccccc12` [Compound 747], the IC50 was below 10 µM.

For `O=C(O)CCCNC(=O)[C@H]1Cc2ccc(cc2)OCC(=O)N[C@@H](Cc2c[nH]c3ccccc23)C(=O)N[C@H](Cc2ccc(-c3ccccc3)cc2)C(=O)N[C@@H](Cc2ccccc2F)C(=O)N1` [compound 713], the IC50 is below 10 µM.

Consider `O=C(O)CCCNC(=O)[C@H]1Cc2ccc(cc2)OCC(=O)N[C@@H](Cc2ccncc2)C(=O)N[C@H](Cc2ccc(-c3ccccc3)cc2)C(=O)N[C@@H](CCc2ccccc2)C(=O)N1` [compound 715], for which the IC50 is 10 to 30 µM and > 100 µM.
